From patent US12527835B2, “Brevican-binding peptides for brain tumor imaging” (The Brigham and Women's Hospital, Inc., priority 2018, dated 2026)

Tests used:
[1] = cited from earlier work
human BBB organoids = experiment: BBB organoid peptide permeability assay; type: in vitro ADME; conditions: Cy5.5-labeled peptide, 10 μM, 3 hrs
Description: Immortalized hCMEC/D3, primary HBVP and primary human astrocytes were used for generation of BBB organoids as previously described (Cho et al., Nat Commun 8, 15623 (2017); Fadzen et al., J. Am. Chem. Soc. 139, 15628-15631 (2017)). Briefly, agarose (0.5 g) was dissolved in 50 mL of MilliQ water or PBS in a conical flask and the solution was heated in a microwave for 1-2 minutes until completely dissolved. Melted agarose was transferred into a sterile tissue culture hood and immediately poured into a 50-mL sterile basin. 50 μL of melted agarose was dispensed into each well in a 96-well plate using a multichannel pipette. The plate was set aside to allow agarose to solidify completely inside the wells for at least 15 minutes. […] Each cell type was counted using a hemocytometer, and 1,500 of each cell type were seeded into each well containing solidified agarose. […]
For peptide permeability analyses, after 48 hrs, organoids that formed successfully were pooled together into a 0.5-mL microcentrifuge tube in BBB working medium. […] The organoids were then transferred onto a thin-well chambered coverglass and imaged by confocal fluorescence microscopy. Quantification of peptide permeability was performed using the ImageJ software, where the mean fluorescence intensity of the core of each spheroid (at a depth between 50-90 μm) was measured, and then plotted on GraphPad Prism.

CC[C@@]1(O)C(=O)OCc2c1cc1n(c2=O)Cc2cc3ccccc3nc2-1 [CPT, camptothecin]
solubility of CPT itself [1]: insoluble

CC(C)[C@@H](NC(=O)[C@@H](Cc1c[nH]cn1)NC(=O)CNC(=O)[C@@H](Cc1c[nH]c2ccccc12)NC(=O)[C@@H](CCCCN)NC(=O)[C@H](N)[C@H](C)O)C(=O)N[C@H](CC(N)=O)C(=O)N[C@H](CCCCN)C(N)=O [BTP-7, TKWGHVNK]
influx into the core of the BBB organoids (human BBB organoids): dramatic influx
